Laboratory results as given in patent publication US9936724B2, “Sweetener compositions” (Givaudan, S.A., priority 2014, dated 2018).
Peptide text beside a SMILES is read from it.

Assays:
[1] = Solubility in water at room temperature; format: physicochemical; details: for solubility: in water at room temperature; for solubility in water, comparison in words: compared with other dihydrochalcones / with 3-phenyl-1-(2,4,6-trimethoxyphenyl)propan-1-one
[2] = Masking of off-notes of high-intensity sweeteners (comparison of dihydrochalcones); details: used at soluble concentrations
[3] = relative to sucrose; cited from earlier work

solubility [1]	Compound	masking properties / masking effect [2]	times sweeter than sucrose [3]	solubility in water, comparison in words [1]
below 5 ppm	COc1ccc(CCC(=O)c2c(O)cc(OC)cc2OC)cc1 [1-(2-hydroxy-4,6-dimethoxyphenyl)-3-(4-methoxyphenyl)propan-1-one]	significantly lower masking effect		
	thaumatin		about 2 000 times	
	OC[C@H]1O[C@H](O[C@]2(CCl)O[C@H](CCl)[C@@H](O)[C@@H]2O)[C@H](O)[C@@H](O)[C@H]1Cl [sucralose]		about 600 times	
greater than 30 ppm	COc1cc(OC)c(C(=O)CCc2ccccc2)c(OC)c1 [3-phenyl-1-(2,4,6-trimethoxy-phenyl)propan-1-one]	particularly good masking properties		much higher solubility in water than other dihydrochalcones
	O=S(=O)([O-])NC1CCCCC1.[Na+] [sodium cyclamate]		about 30 times	
	O=C(CCc1ccc(O)cc1)c1c(O)cc(O)cc1O [phloretin, 3-(4-hydroxyphenyl)-1-(2,4,6-trihydroxyphenyl)propan-1-one]	did not provide masking properties		soluble to a similar extent
	COC(=O)[C@H](Cc1ccccc1)NC(=O)[C@@H](N)CC(=O)O [Aspartame] (H-Asp-Phe-OMe)		160-200 times	
